Laboratory results from patent US4874780A, “Anticancer compounds” (Norsk Hydro a.s., priority 1987, dated 1989).
“Also recorded” adds a separate entry of the source. Structures can show the parent of a compound that is named as a salt. Where two headings read alike, the source gives them in different places.

Tests used:
NHIK 3025 cells [1] = assay: Cell survival (colony formation) after 24 hr treatment; type: cell-based; details: Homo sapiens, NHIK3025, 24 h
Description: (§1) Human cells of the established line NHIK 3025, originating from a cervical carcinoma in situ (Nordbye, K., and Oftebro, R. Exp. Cell Res., 58: 458, 1969), Oftebro, R., and Nordbye, K., Exp. Cell Res., 58: 459-460, 1969) were cultivated in Medium E2a (Puck, T.T. et al., J. Exp. Med., 106:145-165, 1957) supplemented with 20% human (prepared at the laboratory) and 10% horse serum (Grand Island Biological Co.). The cells are routinely grown as monolayers in tissue culture flasks.
(§2) The cells were kept in continuous exponential growth by frequent reculturing, i.e., every second and third day, and synchronized cell populations with a high degree of synchrony were obtained by repeated selection of mitotic cells (Pettersen, E. O. et al, Cell Tissue Kinet., 10: 511-522, 1977). During the synchronization procedure, the cells were kept in Medium E2a, and the whole experiment took place in a walk-in incubator at 37° C. Under growth conditions as used here, the NHIK 3025 cells have a medium cell-cycle time of ~18 hr, with medium G1, S1 and G2 durations of ~7, ~8, and ~2.5 hr, respectively.
For measurement of cell survival, appropriate numbers of cells were seeded in plastic Petri dishes (.phi.=5 cm). The number of cells seeded into each dish was adjusted such that the number of surviving cells would be approximately 150 per dish. While exponentially growing (asynchronous) cells were trypsinized before seeding, synchronized cells were seeded immediately after selection. After about 2 hr, the cells had attached to the bottom of the dishes, and the treatment was started by replacing the medium with medium containing the appropriate drug concentration. After the desired time of treatment, the drug-containing medium was removed, and fresh medium was added. The dishes were rinsed once with the same medium as was to be added on addition or removal of drug. After 10 to 12 days at 37° C. in a CO2 incubator, the cells were fixed in ethanol and stained with methylene blue before the colonies were counted.
The cytotoxic effect of benzaldehyde and of deuterobenzaldehyde-d1 was tested on asynchronous, exponentially growing NHIK 3025 cells by counting the number of cells able to form colonies after 24 hr treatment in Petri dishes. In Table 1 the results represent 2 different, independent experiments where the numbers give the mean fraction of surviving cells from 10 parallel dishes (± standard error).
Fraction of cells surviving 24 hr treatment with benzaldehyde or deuterobenzaldehyde - d1 in Petri dishes. (The values represent the mean±standard error from 10 different dishes.)

NHIK 3025 cells [2] = assay: Protein synthesis rate ((3H)valine incorporation); type: cell-based, human; details: 3.2 mM
Description: as §1, §2
The rate of protein synthesis was calculated as described previously (Ronning, O. W. et al., J. Cell Physiol., 107: 47-57, 1981). Briefly, cellular protein was labeled to saturation during a 2-day preincubation with (^14 C)valine of constant specific radioactivity (0.5 Ci/mol) prior to the experiment. This was achieved by using a high concentration of valine so that the dilution of (^14 C)valine by intracellular valine and by proteolytically generated valine will be negligible (Ronning, O. W., et al. Exp. Cell Res. 123: 63-72, 1979), thus keeping the specific radioactivity at a constant level. The rate of protein synthesis was calculated from the incorporation of (3H)valine of constant specific activity. The incorporation measurements were related to the total of (^14 C) radioactivity in protein at the beginning of the respective measurement periods and expressed as the percentage per hr (Ronning, O. W. et al, J. Cell, Physiol. 107: 47-57, 1981).
[…] The last measurements were done to test the reversibility of the drugs. Drug concentration: 3.2 mM.

[3] = Concentration of BG or BG-d1 in blood samples after iv injection (HPLC); type: in vivo, male Wistar rats; details: rat, iv
Protocol: Measurement of concentration of 4,6-O-benzylidene-D-glucose (BG) or 4,6-O-deuterobenzylidene-d1 -D-glucose (BG-d1) in blood samples (Table 5).
(§3) Blood samples were taken from male Wistar rats immediately before and at several intervals after intravenous injection of BG or BG-d1. Blood serum was separated by centrifugation. Equal amounts of blood serum and HPLC-grade acetonitrile were mixed and centrifuged at 13,000 rpm (15,000×g) for 5 minutes. Samples were then analyzed for BG or BG-d1 content by High Performance Liquid Chromatography (HPLC). Samples were placed in an autosampler programmed for replicate injections of […] each onto a 4.6×250 mm LC18 HPLC column. The column was eluted with 45% aqueous methanol delivered at 1 ml/min. BG or BG-d1 were detected by using a spectrofluorometer set at excitation and emission wavelengths of 255 and 283 nm, respectively. The slit width used was 10 nm. Quantitation of the amount of BG or BG-d1 in serum samples was performed with an electronic integrator calibrated with standard solutions of BG or BG-d1 in the mobile phase (Pettersen et al., Anticancer Res., 6; 147-152, 1986).
We have compared the metabolism in rats of BG as well as of deuterated BG (BG-d1). In Table 5 the serum concentration of BG or BG-d1 is shown at various time points after a single iv injection of each drug, respectively.

[4] = BG or BG-d1 metabolites in blood samples after iv injection (HPLC peak height); type: in vivo, male Wistar rats; details: rat, iv, BG versus BG-d1
Protocol: as §3
Measurement of BG or BG-d1 metabolites in blood samples (Table 6)
HPLC of blood samples was performed as indicated above. Relative amounts of BG- or BG-d1 -metabolite were determined by peak height analysis. The peak height from the electronic integrator (in microvolts) of samples taken 30 minutes after iv injection of BG, or 60 minutes after iv injection of BG-d1 were normalized to 1. All other metabolite peaks were compared with these values.
At the same time as BG or BG-d1 metabolism was being determined, a separate metabolite peak appeared in HPLC chromatograms. The increase in BG- and BG-d1 -metabolite and subsequent clearance was measured.

NHIK 3025 cells [5] = assay: Duration of cell cycle-time of synchronized cells; type: cell-based, human; details: 8 hr treatment
Description: as §1, §2
(§4) For detection of the drug effects on cell-cycle kinetics, the same methods were used as described previously (Lindmo, T., and Pettersen, E. O., Cell Tissue Kinet., 12: 43-57, 1979), (Pettersen, E. O. et al, Eur. J. Cancer Clin. Oncol., 19: 507-514; 1983), (Ronning, O.W. et al., J. Cell. Physiol., 109: 411-419, 1981). Briefly, the selected mitotic cells were seeded into 8 tissue culture flasks (25 sq cm) 5000 cells per flask. The cells divided within 1 hr and attached as doublets to the bottom of the flasks. […] Analyses of durations of mitosis were performed from these observations (Table 4).
This is shown by the data in Table 3, where we have used synchronized cells treated over an 8 hr period starting 2 hr after mitotic selection, i.e. when the cells were in early Gl.

NHIK 3025 cells [6] = assay: Duration of mitosis of synchronized cells; type: cell-based, human; details: 3.2 mM during mitosis
Description: as §1, §2, §4
This effect is probably directly related to the aldehyde group (Pettersen et al. Cancer Res. 45: 2085-2091, 1985). If the deuterated aldehyde group induces different biological effects from the undeuterated one it is therefore good reason to expect this to be expressed as a difference in effect on cells in mitosis. In Table 4 results are shown on prolongation of mitosis of synchronized cells treated with benzaldehyde or deuterobenzaldehyde-d1 during mitosis. The numbers in the table represent the percentage of the cells having a duration of mitosis below 1 hr (which is normal for untreated cells) or above the number of hours indicated on top of each column.

[7] = Solubility in water, pH of solution and stability of benzylidene ascorbic acid compounds; type: physicochemical; details: for Stability (in words): free acid compared with mono-basic salt
Description: The structural formula is shown below. The structure has been confirmed by IR and NMR. […] The pH of the solution is 6.6. [drawing 8] The beneficial properties of the drug composition according to the present invention are illustrated below in connection with a series of experiments which have been performed.

[8] = read-out: Cell survival of cells treated for 24 hr
[9] = read-out: Fraction of cells surviving 24 hr treatment

`[2H]C1(c2ccccc2)OC[C@H]2OC(O)[C@H](O)[C@@H](O)[C@@H]2O1` (stereo partly drawn) [BG-d1, 4,6-O-deuterobenzylidene-d1 -D-glucose] gave a viability at 6400 µM (NHIK 3025 cells [1]; [8]) of 33 ± 7%, a viability at 12800 µM (NHIK 3025 cells [1]; [8]) of 0.8 ± 0.3% and a Protein synthesis (NHIK 3025 cells [2]; asynchronous cells, 3 hr treatment, pulse 0-1 hr, during treatment, Table 8, control 5.7 ± 0.5) of 3.0 ± 0.3 %/hr. It also gave a Protein synthesis (NHIK 3025 cells [2]; asynchronous cells, 3 hr treatment, pulse 2-3 hr, during treatment, Table 8, control 5.7 ± 0.5) of 3.4 ± 0.3 %/hr, a Protein synthesis (NHIK 3025 cells [2]; synchronized cells, 22 hr treatment, pulse 21-22 hr, during treatment, Table 8, control 5.3 ± 0.2) of 4.6 ± 0.2 %/hr and a Protein synthesis (NHIK 3025 cells [2]; synchronized cells, 22 hr treatment, pulse 23-24 hr, after treatment, Table 8, control 5.3 ± 0.2) of 5.4 ± 0.1 %/hr. For the same molecule, the “Metabolism and clearance from serum (in words)” value ([3]; compared with BG) was “slower than that of the undeuterated compound; also recorded: clearly slower metabolism and clearance from serum”, the concentration at 0 h ([3]; serum, 0 minutes (estimated), read-out: Amount of unmetabolized drug in blood samples) was 345 µM and the concentration at 2 min ([3]; serum, 2 minutes, read-out: Amount of unmetabolized drug in blood samples) was 220 ± 20 µM. It also gave a concentration at 5 min ([3]; serum, 5 minutes, read-out: Amount of unmetabolized drug in blood samples) of 160 ± 20 µM, a concentration at 10 min ([3]; serum, 10 minutes, read-out: Amount of unmetabolized drug in blood samples) of 140 ± 20 µM and a concentration at 0.25 h ([3]; serum, 15 minutes, read-out: Amount of unmetabolized drug in blood samples) of 100 ± 20 µM. The concentration at 20 min ([3]; serum, 20 minutes, read-out: Amount of unmetabolized drug in blood samples) was 97 ± 3 µM, the concentration at 0.5 h ([3]; serum, 30 minutes, read-out: Amount of unmetabolized drug in blood samples) was 66 ± 15 µM and the concentration at 1 h ([3]; serum, 60 minutes, N.F. = Not Found, read-out: Amount of unmetabolized drug in blood samples) was 10 ± 5 µM. For the same molecule, the half-life ([3]; serum, read-out: half-life in vivo) was about 15 min and the “Clearance (or further metabolization) of metabolite (in words)” value [4] was “slower clearance kinetics than that formed from BG”.
Work on `[2H]C(=O)c1ccccc1` [Deuterobenzaldehyde-d1] yielded a viability at 3200 µM (NHIK 3025 cells [1]; [9]) of 68 ± 14%, a viability at 12800 µM (NHIK 3025 cells [1]; [9]) of 0.56 ± 0.2% and a Protein synthesis (NHIK 3025 cells [2]; 4 hr treatment, pulse 0-1, during treatment, Table 2, control 6.8 ± 0.9) of 3.6 ± 0.3 %/hr. It also gave a Protein synthesis (NHIK 3025 cells [2]; 4 hr treatment, pulse 4-5, after treatment, Table 2, control 6.8 ± 0.9) of 4.7 ± 0.3 %/hr, a Protein synthesis (NHIK 3025 cells [2]; 4 hr treatment, pulse 5-6, after treatment, Table 2, control 6.8 ± 0.9) of 5.8 ± 0.3 %/hr and a Prolongation (NHIK 3025 cells [5]; 2 mM, versus control 1) of 15.2%. For the same molecule, the “Duration of the part of the cell cycle starting 2 hr after selection” value (NHIK 3025 cells [5]; 2 mM, control 1 16.5) was 19.0, the Prolongation (NHIK 3025 cells [5]; 2.5 mM, versus control 2) was 108.3% and the “Duration of the part of the cell cycle starting 2 hr after selection” value (NHIK 3025 cells [5]; 2.5 mM, control 2 16.8) was 35.0. The “Percentage of cells with duration of mitosis >4 h” value (NHIK 3025 cells [6]) was 70%, the “Percentage of cells with duration of mitosis >5 h” value (NHIK 3025 cells [6]) was 69% and the “Percentage of cells with duration of mitosis >6 h” value (NHIK 3025 cells [6]) was 64%. The “Percentage of cells with duration of mitosis >3 h” value (NHIK 3025 cells [6]; control 2%) was 74%, the “Percentage of cells with duration of mitosis >2 h” value (NHIK 3025 cells [6]; control 4%) was 81% and the “Percentage of cells with duration of mitosis >1 h” value (NHIK 3025 cells [6]; control 17%) was 87%. The “Percentage of cells with duration of mitosis <1 h” value (NHIK 3025 cells [6]; control 83%) was 13%.
In the case of `[2H]C1(c2ccccc2)OC[C@@H]([C@H]2OC(=O)C(O)=C2O)O1` (stereo partly drawn) [deutero 5,6-O-benzylidene ascorbic acid, deutero 5,6-O-benzylidene-L-ascorbic acid], the “Stability (in words)” value [7] is reported as “instability”.
With `[2H]C1(c2ccccc2)OC[C@@H]([C@H]2OC(=O)C(O)=C2O)O1` (stereo partly drawn) [mono-sodium salt of deutero 5,6-O-benzylidene-L-ascorbic aci] [mono-sodium salt of deutero 5,6-O-benzylidene-L-ascorbic acid] the “pH of the solution” value ([7]; aqueous solution of mono-sodium salt) was 6.6, the “Stability (in words)” value [7] was “much more stable” and the Solubility in water ([7]; water) was “readily soluble in water”.
